# Laboratory results as given in US20240360178A1, “MACROCYCLIC IMMUNOMODULATORS” (Bristol-Myers Squibb Company, priority 2021, published 2024).
# Positions of bridges follow the written chain, without caps; N, C: chain ends. Non-standard residues stand in square brackets, D forms with d. Residues, ends and D or L forms follow the SMILES beside them. ξ: configuration not given here. *: point of attachment. Phe(4-COOH) = N[C@@H](Cc1ccc(C(=O)O)cc1)C(=O)O; Bip = N[C@@H](Cc1ccc(-c2ccccc2)cc1)C(=O)O; Phe(3-Br) = N[C@@H](Cc1cccc(Br)c1)C(=O)O; Phe(3-CN) = N#Cc1cccc(C[C@H](N)C(=O)O)c1; Phe(3-OMe) = COc1cccc(C[C@H](N)C(=O)O)c1; Phe(3-Me) = Cc1cccc(C[C@H](N)C(=O)O)c1; Val(3-OH) = CC(C)(O)[C@H](N)C(=O)O; NMeF = CN[C@@H](Cc1ccccc1)C(=O)O; ξW = NC(Cc1c[nH]c2ccccc12)C(=O)O; 4Pal = N[C@@H](Cc1ccncc1)C(=O)O; Cha = N[C@@H](CC1CCCCC1)C(=O)O; Carboxymethyl = O=C(O)C*; NMeA = CN[C@@H](C)C(=O)O; Orn = NCCC[C@H](N)C(=O)O; Dab = NCC[C@H](N)C(=O)O; Dap = NC[C@H](N)C(=O)O; Ac3c = NC1(C(=O)O)CC1; ξV = CC(C)C(N)C(=O)O; Sar = CNCC(=O)O
# Target: T1, human PD-1 (Jurkat-PD-1 cells) / PE-labeled human PD-L1-Ig (Homo sapiens, UniProt Q15116)
# T1 construct: expressed in transfected cells; host or cells: Jurkat cell line over-expressing human PD-1
# T1 sequence (Q15116 25-288): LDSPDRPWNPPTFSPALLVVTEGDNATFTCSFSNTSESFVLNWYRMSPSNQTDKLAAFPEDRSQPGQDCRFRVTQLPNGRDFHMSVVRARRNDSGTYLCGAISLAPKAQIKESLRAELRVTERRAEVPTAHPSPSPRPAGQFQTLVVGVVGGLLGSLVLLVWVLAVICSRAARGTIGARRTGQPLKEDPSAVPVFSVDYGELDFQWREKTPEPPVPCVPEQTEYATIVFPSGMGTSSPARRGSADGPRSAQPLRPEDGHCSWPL
# Assay: Jurkat-PD-1 Cell Binding High-Content Screening Assay (CBA); Jurkat hPD1-PDL1 assay
# Conditions: Jurkat cell line over-expressing human PD-1; PE-labeled PD-L1-Ig 20 nM final; compound incubated 2 hours at 37° C.; read-out: Jurkat HPD1-PDL1 IC50
# Outline: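 Cell binding by imaging: Jurkat line stably over-expressing human PD-1, compound pre-exposure 2 h at 37° C, PE-conjugated PD-L1-Ig 20 nM final, medium DMEM containing 10% FCS.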
row,IC50 [nM],Compound
1,240,Cc1cccc(C[C@@H]2NC(=O)[C@H](CC(=O)O)NC(=O)[C@H](Cc3cccc(C#N)c3)NC(=O)[C@H](Cc3ccncc3)NC(=O)CSC[C@@H](C(=O)N[C@@H](CCN)C(N)=O)NC(=O)[C@H](CO)NC(=O)[C@H](C(C)(C)O)NC(=O)[C@H](CC3CCCCC3)NC(=O)[C@H](CCN)NC(=O)[C@H]3CCCN3C(=O)[C@H](C)N(C)C(=O)[C@H](Cc3ccc(OCC(=O)O)cc3)NC(=O)[C@H](Cc3ccc(-c4ccccc4)cc3)NC(=O)[C@H](Cc3ccc(OCC(=O)O)cc3)NC2=O)c1 [Example 1182] ({CH2CO}-[4Pal][Phe(3-CN)]D[Phe(3-Me)]Y(Carboxymethyl)[Bip]Y(Carboxymethyl)[NMeA][dP][Dab][Cha][Val(3-OH)]SC[Dab]-NH2; thioether N-14)
2,400,CC(C)C[C@@H]1NC(=O)[C@H](CCCNC(=N)N)NC(=O)[C@H](Cc2ccccc2)N(C)C(=O)[C@H](C)N(C)C(=O)[C@H](C(C)C)NC(=O)[C@H](Cc2ccc(-c3ccccc3)cc2)NC(=O)[C@H](C(C)C)NC(=O)[C@H](Cc2c[nH]c3ccccc23)NC(=O)[C@H](CC(=O)O)NC(=O)[C@H](Cc2ccc(O)cc2)NC(=O)[C@H](Cc2ccccc2)NC(=O)CSC[C@@H](C(=O)N[C@@H](C)C(N)=O)NC(=O)[C@H](CO)NC(=O)[C@H](C(C)C)NC1=O [Example 1115] ({CH2CO}-FYDWV[Bip]V[NMeA][NMeF]RLVSCA-NH2; thioether N-14)
3,20,Cc1cccc(C[C@@H]2NC(=O)[C@H](CC(=O)O)NC(=O)[C@H](Cc3ccncc3)NC(=O)[C@H](Cc3ccc(OCC(=O)O)cc3)NC(=O)CSC[C@@H](C(=O)N[C@@H](C)C(N)=O)NC(=O)[C@H]([C@@H](C)O)NC(=O)[C@H](C(C)C)NC(=O)[C@H](CC3CCCCC3)NC(=O)[C@H](CCN)NC(=O)[C@H](Cc3ccccc3)N(C)C(=O)[C@H](CCCN)NC(=O)[C@H](CCC(=O)O)NC(=O)[C@H](Cc3ccc(-c4ccccc4)cc3)NC(=O)C(C(C)C)NC2=O)c1 (stereo partly shown) [Example 1446] ({CH2CO}-Y(Carboxymethyl)[4Pal]D[Phe(3-Me)][ξV][Bip]E[Orn][NMeF][Dab][Cha]VTCA-NH2; thioether N-14)
4,80,CC(C)C[C@@H]1NC(=O)[C@H](CC(N)=O)NC(=O)CN(C)C(=O)[C@H](C)N(C)C(=O)[C@H](C(C)C)NC(=O)[C@H](Cc2ccc(-c3ccccc3)cc2)NC(=O)[C@H](C(C)C)NC(=O)[C@H](Cc2c[nH]c3ccccc23)NC(=O)[C@H](CC(=O)O)NC(=O)[C@H](Cc2ccc(O)cc2)NC(=O)[C@H](Cc2ccccc2)NC(=O)CSC[C@@H](C(=O)NCC(N)=O)NC(=O)[C@H](CO)NC(=O)[C@H](C(C)C)NC1=O [Example 1202] ({CH2CO}-FYDWV[Bip]V[NMeA][Sar]NLVSCG-NH2; thioether N-14)
5,120,CC(C)C[C@@H]1NC(=O)[C@H](Cc2c[nH]c3ccccc23)NC(=O)[C@H](CC(=O)O)NC(=O)[C@H](Cc2cccc(Br)c2)NC(=O)[C@H](Cc2ccccc2)NC(=O)CSC[C@@H](C(=O)N[C@@H](C)C(N)=O)NC(=O)[C@H](CO)NC(=O)[C@H](C(C)C)NC(=O)[C@H](CC(C)C)NC(=O)[C@H](CC(N)=O)NC(=O)[C@H]2CCCN2C(=O)[C@H](C)N(C)C(=O)[C@H](C(C)C)NC(=O)[C@H](Cc2ccc(-c3ccccc3)cc2)NC1=O [Example 1065] ({CH2CO}-F[Phe(3-Br)]DWL[Bip]V[NMeA][dP]NLVSCA-NH2; thioether N-14)
6,10,COc1cccc(C[C@@H]2NC(=O)[C@H](CC(=O)O)NC(=O)[C@H](Cc3ccc(C(=O)O)cc3)NC(=O)[C@H](Cc3ccncc3)NC(=O)CSC[C@@H](C(=O)N[C@@H](C)C(N)=O)NC(=O)[C@H](CO)NC(=O)[C@H](C(C)C)NC(=O)[C@H](CC(C)C)NC(=O)[C@H](CC(N)=O)NC(=O)[C@H]3CCCN3C(=O)[C@H](C)N(C)C(=O)[C@H](C(C)C)NC(=O)[C@H](Cc3ccc(-c4ccccc4)cc3)NC(=O)[C@H](CC(C)C)NC2=O)c1 [Example 1387] ({CH2CO}-[4Pal][Phe(4-COOH)]D[Phe(3-OMe)]L[Bip]V[NMeA][dP]NLVSCA-NH2; thioether N-14)
7,850,CC(C)C[C@@H]1NC(=O)[C@H](Cc2c[nH]c3ccccc23)NC(=O)[C@H](CC(=O)O)NC(=O)[C@H](Cc2ccc(O)cc2)NC(=O)[C@H](Cc2ccccc2)NC(=O)CSC[C@@H](C(=O)N[C@@H](CCCNC(=N)N)C(N)=O)NC(=O)[C@H](CO)NC(=O)[C@H](C(C)C)NC(=O)[C@H](CC(C)C)NC(=O)[C@H](CC(N)=O)NC(=O)CN(C)C(=O)[C@H](C)N(C)C(=O)[C@H](C(C)C)NC(=O)[C@H](Cc2ccc(-c3ccccc3)cc2)NC1=O [Example 1254] ({CH2CO}-FYDWL[Bip]V[NMeA][Sar]NLVSCR-NH2; thioether N-14)
8,170,CC(C)C[C@@H]1NC(=O)[C@H](CCCNC(=N)N)NC(=O)[C@H](Cc2ccccc2)N(C)C(=O)[C@H](C)N(C)C(=O)[C@H](CCCNC(=N)N)NC(=O)[C@H](Cc2ccc(-c3ccccc3)cc2)NC(=O)[C@H](C(C)C)NC(=O)[C@H](Cc2c[nH]c3ccccc23)NC(=O)[C@H](CC(=O)O)NC(=O)[C@H](Cc2ccc(O)cc2)NC(=O)[C@H](Cc2ccc(O)cc2)NC(=O)CSC[C@@H](C(=O)NCC(N)=O)NC(=O)[C@H](CO)NC(=O)[C@H](C(C)C)NC1=O [Example 1068] ({CH2CO}-YYDWV[Bip]R[NMeA][NMeF]RLVSCG-NH2; thioether N-14)
9,440,CC(C)C[C@@H]1NC(=O)[C@H](CC(N)=O)NC(=O)CN(C)C(=O)[C@H](CCCNC(=N)N)NC(=O)[C@H](C(C)C)NC(=O)[C@H](Cc2ccc(-c3ccccc3)cc2)NC(=O)[C@H](C(C)C)NC(=O)C(Cc2c[nH]c3ccccc23)NC(=O)[C@H](CC(=O)O)NC(=O)[C@H](Cc2ccc(O)cc2)NC(=O)[C@H](Cc2ccccc2)NC(=O)CSC[C@@H](C(=O)NCC(N)=O)NC(=O)[C@H](CO)NC(=O)[C@H](C(C)C)NC1=O (stereo partly shown) [Example 1229] ({CH2CO}-FYD[ξW]V[Bip]VR[Sar]NLVSCG-NH2; thioether N-14)
10,390,CC(C)C[C@@H]1NC(=O)[C@H](Cc2c[nH]c3ccccc23)NC(=O)[C@H](CC(=O)O)NC(=O)[C@H](Cc2ccc(O)cc2)NC(=O)[C@H](Cc2ccccc2)NC(=O)CSC[C@@H](C(=O)NCC(N)=O)NC(=O)[C@H]([C@@H](C)O)NC(=O)[C@H](C(C)C)NC(=O)[C@H](CC(C)C)NC(=O)[C@H](CC(N)=O)NC(=O)[C@H]2CCCN2C(=O)[C@H](CN)NC(=O)[C@H](C(C)C)NC(=O)[C@H](Cc2ccc(-c3ccccc3)cc2)NC1=O [Example 1404] ({CH2CO}-FYDWL[Bip]V[Dap][dP]NLVTCG-NH2; thioether N-14)
11,130,CC(C)C[C@@H]1NC(=O)[C@H](Cc2c[nH]c3ccccc23)NC(=O)[C@H](CC(=O)O)NC(=O)[C@H](Cc2ccc(O)cc2)NC(=O)[C@H](Cc2ccccc2)NC(=O)CSC[C@@H](C(=O)NC2(C(N)=O)CC2)NC(=O)[C@H](CO)NC(=O)[C@H](C(C)C)NC(=O)[C@H](CC(C)C)NC(=O)[C@H](CC(N)=O)NC(=O)CN(C)C(=O)[C@H](C)N(C)C(=O)[C@H](C(C)C)NC(=O)[C@H](Cc2ccc(-c3ccccc3)cc2)NC1=O [Example 1056] ({CH2CO}-FYDWL[Bip]V[NMeA][Sar]NLVSC[Ac3c]-NH2; thioether N-14)
12,910,CC(C)C[C@@H]1NC(=O)[C@H](CCCNC(=N)N)NC(=O)[C@H](Cc2ccccc2)N(C)C(=O)[C@H](C)N(C)C(=O)[C@H](CCCNC(=N)N)NC(=O)[C@H](Cc2ccc(-c3ccccc3)cc2)NC(=O)[C@H](C(C)C)NC(=O)[C@H](Cc2c[nH]c3ccccc23)NC(=O)[C@H](CC(=O)O)NC(=O)[C@H](Cc2ccc(O)cc2)NC(=O)[C@H](Cc2ccccc2)NC(=O)CSC[C@@H](C(=O)N[C@H](C(N)=O)C(C)C)NC(=O)[C@H](CO)NC(=O)[C@H](C(C)C)NC1=O [Example 1167] ({CH2CO}-FYDWV[Bip]R[NMeA][NMeF]RLVSCV-NH2; thioether N-14)
13,340,CC(C)C[C@@H]1NC(=O)[C@H](Cc2c[nH]c3ccccc23)NC(=O)[C@H](CC(=O)O)NC(=O)[C@H](Cc2ccc(O)cc2)NC(=O)[C@H](Cc2ccccc2)NC(=O)CSC[C@@H](C(=O)N[C@@H](C)C(N)=O)NC(=O)[C@H](CO)NC(=O)[C@H](C(C)C)NC(=O)[C@H](CC(C)C)NC(=O)[C@H](CCC(=O)O)NC(=O)CN(C)C(=O)[C@H](C)N(C)C(=O)[C@H](C(C)C)NC(=O)[C@H](Cc2ccc(-c3ccccc3)cc2)NC1=O [Example 1108] ({CH2CO}-FYDWL[Bip]V[NMeA][Sar]ELVSCA-NH2; thioether N-14)
14,760,CC(C)C[C@@H]1NC(=O)CSC[C@@H](C(=O)NCC(N)=O)NC(=O)[C@H]([C@@H](C)O)NC(=O)[C@H](C(C)C)NC(=O)[C@H](CC(C)C)NC(=O)[C@H](CCCNC(=N)N)NC(=O)[C@H](Cc2ccccc2)N(C)C(=O)[C@H](C)N(C)C(=O)[C@H](CCCNC(=N)N)NC(=O)[C@H](Cc2ccc(-c3ccccc3)cc2)NC(=O)[C@H](C(C)C)NC(=O)[C@H](Cc2c[nH]c3ccccc23)NC(=O)[C@H](CC(=O)O)NC(=O)[C@H](Cc2ccc(O)cc2)NC1=O [Example 1312] ({CH2CO}-LYDWV[Bip]R[NMeA][NMeF]RLVTCG-NH2; thioether N-14)
15,320,CC(C)C[C@@H]1NC(=O)[C@H](CC(N)=O)NC(=O)CN(C)C(=O)[C@H](C)N(C)C(=O)[C@H](C(C)C)NC(=O)[C@H](Cc2ccc(-c3ccccc3)cc2)NC(=O)[C@H](CC(C)C)NC(=O)[C@H](Cc2c[nH]c3ccccc23)NC(=O)[C@H](CC(=O)O)NC(=O)[C@H](Cc2ccc(O)cc2)NC(=O)[C@H](Cc2ccccc2)NC(=O)CSC[C@@H](C(=O)NCC(N)=O)NC(=O)[C@H](CO)NC(=O)[C@H](CCCCN)NC1=O [Example 1104] ({CH2CO}-FYDWL[Bip]V[NMeA][Sar]NLKSCG-NH2; thioether N-14)
16,140,CC(C)C[C@@H]1NC(=O)[C@H](CCCNC(=N)N)NC(=O)[C@H](Cc2ccccc2)N(C)C(=O)[C@H](C)N(C)C(=O)[C@H](CCCN)NC(=O)[C@H](Cc2ccc(-c3ccccc3)cc2)NC(=O)[C@H](C(C)C)NC(=O)[C@H](Cc2c[nH]c3ccccc23)NC(=O)[C@H](CC(=O)O)NC(=O)[C@H](Cc2ccc(O)cc2)NC(=O)[C@H](CCC(N)=O)NC(=O)CSC[C@@H](C(=O)NCC(N)=O)NC(=O)[C@H](CO)NC(=O)[C@H](C(C)C)NC1=O [Example 1294] ({CH2CO}-QYDWV[Bip][Orn][NMeA][NMeF]RLVSCG-NH2; thioether N-14)
